Laboratory results: the NIST ThermoML archive (doi:10.1016/j.jct.2018.04.018)
Values joined by “and” are separate entries in the source; they are usually repeats but may differ in a detail not shown here. Identical values can stand only once.

Conditions: 101.33 kPa, Liquid; for mass density: Vibrating tube method; for speed of sound: Single path-length method

CCCCCCCC[n+]1ccn(C)c1.F[P-](F)(F)(F)(F)F [1-octyl-3-methylimidazolium hexafluorophosphate]
Conditions	viscosity
269.96 K, Cone and plate viscometry	8278 mPa·s
270.27 K, Cone and plate viscometry	7970.4 mPa·s
270.37 K, Cone and plate viscometry	7819.7 mPa·s
270.91 K, Cone and plate viscometry	7509 mPa·s
271.66 K, Cone and plate viscometry	6771 mPa·s
272.33 K, Cone and plate viscometry	6420 mPa·s
272.44 K, Cone and plate viscometry	6269.6 mPa·s
273.24 K, Cone and plate viscometry	5792.5 mPa·s
274.02 K, Cone and plate viscometry	5350.3 mPa·s
274.63 K, Cone and plate viscometry	4992.4 mPa·s
274.8 K, Cone and plate viscometry	4951.8 mPa·s
274.81 K, Cone and plate viscometry	4903 mPa·s
274.88 K, Cone and plate viscometry	4879 mPa·s
275.31 K, Cone and plate viscometry	4651.9 mPa·s
275.44 K, Cone and plate viscometry	4635.1 mPa·s
275.56 K, Cone and plate viscometry	4593.6 mPa·s
276.14 K, Cone and plate viscometry	4334 mPa·s
276.34 K, Cone and plate viscometry	4268.2 mPa·s
276.47 K, Cone and plate viscometry	4216.3 mPa·s
276.9 K, Cone and plate viscometry	4053 mPa·s
277.09 K, Cone and plate viscometry	3957.1 mPa·s
277.68 K, Cone and plate viscometry	3777 mPa·s
277.76 K, Cone and plate viscometry	3737 mPa·s
277.85 K, Cone and plate viscometry	3693.3 mPa·s
278.15 K, Concentric cylinders viscometry	3543 mPa·s
278.46 K, Cone and plate viscometry	3522.8 mPa·s
278.6 K, Cone and plate viscometry	3439.8 mPa·s
279.19 K, Cone and plate viscometry	3241 mPa·s
279.24 K, Cone and plate viscometry	3279.4 mPa·s
279.34 K, Cone and plate viscometry	3221.2 mPa·s
280.01 K, Cone and plate viscometry	3050.1 mPa·s
280.09 K, Cone and plate viscometry	3002.8 mPa·s
280.77 K, Cone and plate viscometry	2845.3 mPa·s
280.78 K, Cone and plate viscometry	2866 mPa·s
280.84 K, Cone and plate viscometry	2803.8 mPa·s
281.53 K, Cone and plate viscometry	2656.6 mPa·s
281.59 K, Cone and plate viscometry	2620.4 mPa·s
282.29 K, Cone and plate viscometry	2486.9 mPa·s
282.33 K, Cone and plate viscometry	2458 mPa·s
282.53 K, Cone and plate viscometry	2412.6 mPa·s
283.04 K, Cone and plate viscometry	2331.3 mPa·s
283.08 K, Cone and plate viscometry	2299.1 mPa·s
283.15 K, Concentric cylinders viscometry	2263.1 mPa·s
283.79 K, Cone and plate viscometry	2174 mPa·s
283.83 K, Cone and plate viscometry	2154.4 mPa·s
284.54 K, Cone and plate viscometry	2037.4 mPa·s
284.55 K, Cone and plate viscometry	2001 mPa·s
284.58 K, Cone and plate viscometry	2017.2 mPa·s
285.28 K, Cone and plate viscometry	1916 mPa·s
285.32 K, Cone and plate viscometry	1893.2 mPa·s
286.03 K, Cone and plate viscometry	1799.7 mPa·s
286.06 K, Cone and plate viscometry	1779.6 mPa·s
286.78 K, Cone and plate viscometry	1697.1 mPa·s
286.8 K, Cone and plate viscometry	1672.4 mPa·s
287.52 K, Cone and plate viscometry	1594.4 mPa·s
287.55 K, Cone and plate viscometry	1572.8 mPa·s
288.15 K, Concentric cylinders viscometry	1475.1 mPa·s
288.27 K, Cone and plate viscometry	1496.8 mPa·s
288.29 K, Cone and plate viscometry	1479.3 mPa·s
289.02 K, Cone and plate viscometry	1407.5 mPa·s
289.03 K, Cone and plate viscometry	1391.9 mPa·s
289.76 K, Cone and plate viscometry	1327.8 mPa·s
289.78 K, Cone and plate viscometry	1313.9 mPa·s
290.5 K, Cone and plate viscometry	1253.5 mPa·s
290.52 K, Cone and plate viscometry	1241 mPa·s
291.24 K, Cone and plate viscometry	1183.2 mPa·s
291.27 K, Cone and plate viscometry	1168.4 mPa·s
291.98 K, Cone and plate viscometry	1115.8 mPa·s
292 K, Cone and plate viscometry	1101.8 mPa·s
292.73 K, Cone and plate viscometry	1053.3 mPa·s
292.75 K, Cone and plate viscometry	1040.1 mPa·s
293.15 K, Concentric cylinders viscometry	1001.1 mPa·s
293.48 K, Cone and plate viscometry	994.4 mPa·s
293.49 K, Cone and plate viscometry	984.3 mPa·s
294.22 K, Cone and plate viscometry	932.9 mPa·s
294.25 K, Cone and plate viscometry	929.4 mPa·s
294.96 K, Cone and plate viscometry	882.6 mPa·s
295.02 K, Cone and plate viscometry	879.2 mPa·s
295.71 K, Cone and plate viscometry	844.7 mPa·s
295.79 K, Cone and plate viscometry	829.3 mPa·s
296.47 K, Cone and plate viscometry	798 mPa·s
296.57 K, Cone and plate viscometry	784.2 mPa·s
297.2 K, Cone and plate viscometry	757 mPa·s
297.33 K, Cone and plate viscometry	741.5 mPa·s
297.94 K, Cone and plate viscometry	718 mPa·s
298.08 K, Cone and plate viscometry	705.1 mPa·s
298.15 K, Concentric cylinders viscometry	691.2 mPa·s
298.69 K, Cone and plate viscometry	682.3 mPa·s
298.82 K, Cone and plate viscometry	668.2 mPa·s
299.43 K, Cone and plate viscometry	647.5 mPa·s
299.55 K, Cone and plate viscometry	632.9 mPa·s
300.16 K, Cone and plate viscometry	614.6 mPa·s
300.28 K, Cone and plate viscometry	601.2 mPa·s
300.91 K, Cone and plate viscometry	584.1 mPa·s
301 K, Cone and plate viscometry	572.3 mPa·s
301.65 K, Cone and plate viscometry	555.5 mPa·s
301.73 K, Cone and plate viscometry	545 mPa·s
302.39 K, Cone and plate viscometry	528.9 mPa·s
302.46 K, Cone and plate viscometry	519.8 mPa·s
303.14 K, Cone and plate viscometry	502.9 mPa·s
303.15 K, Concentric cylinders viscometry	490 mPa·s
303.19 K, Cone and plate viscometry	494.3 mPa·s
303.88 K, Cone and plate viscometry	478.8 mPa·s
303.92 K, Cone and plate viscometry	470.6 mPa·s
304.62 K, Cone and plate viscometry	450.9 mPa·s
304.65 K, Cone and plate viscometry	449.1 mPa·s
305.37 K, Cone and plate viscometry	434.2 mPa·s
305.39 K, Cone and plate viscometry	429.1 mPa·s
306.11 K, Cone and plate viscometry	414.9 mPa·s
306.13 K, Cone and plate viscometry	409.9 mPa·s
306.85 K, Cone and plate viscometry	396 mPa·s
306.86 K, Cone and plate viscometry	390.9 mPa·s
307.59 K, Cone and plate viscometry	378 mPa·s
307.6 K, Cone and plate viscometry	372.5 mPa·s
308.34 K, Cone and plate viscometry	361 mPa·s
308.35 K, Cone and plate viscometry	356 mPa·s
309.09 K, Cone and plate viscometry	339.9 mPa·s and 344.9 mPa·s
309.82 K, Cone and plate viscometry	329.8 mPa·s
309.84 K, Cone and plate viscometry	325.7 mPa·s
310.57 K, Cone and plate viscometry	311.5 mPa·s and 315.9 mPa·s
311.31 K, Cone and plate viscometry	301.8 mPa·s
311.32 K, Cone and plate viscometry	297.7 mPa·s
312.05 K, Cone and plate viscometry	288.8 mPa·s
312.06 K, Cone and plate viscometry	284.9 mPa·s
312.8 K, Cone and plate viscometry	273.3 mPa·s and 275.7 mPa·s
313.15 K, Concentric cylinders viscometry	266.1 mPa·s
313.54 K, Cone and plate viscometry	264.8 mPa·s
313.55 K, Cone and plate viscometry	262 mPa·s
314.28 K, Cone and plate viscometry	254 mPa·s
314.29 K, Cone and plate viscometry	251.2 mPa·s
315.03 K, Cone and plate viscometry	240.6 mPa·s and 243.2 mPa·s
315.77 K, Cone and plate viscometry	230.6 mPa·s and 233 mPa·s
316.51 K, Cone and plate viscometry	221.6 mPa·s and 223.5 mPa·s
317.25 K, Cone and plate viscometry	213.6 mPa·s
317.26 K, Cone and plate viscometry	214.9 mPa·s
317.99 K, Cone and plate viscometry	206.5 mPa·s
318 K, Cone and plate viscometry	204 mPa·s
318.74 K, Cone and plate viscometry	196.1 mPa·s and 198.4 mPa·s
319.48 K, Cone and plate viscometry	188.3 mPa·s and 190.7 mPa·s
320.22 K, Cone and plate viscometry	181 mPa·s and 183.1 mPa·s
320.96 K, Cone and plate viscometry	174.4 mPa·s
320.97 K, Cone and plate viscometry	176 mPa·s
321.71 K, Cone and plate viscometry	168.1 mPa·s
321.72 K, Cone and plate viscometry	169.5 mPa·s
322.44 K, Cone and plate viscometry	163.6 mPa·s
322.46 K, Cone and plate viscometry	161.6 mPa·s
323.19 K, Cone and plate viscometry	155.4 mPa·s and 157.1 mPa·s
323.93 K, Cone and plate viscometry	149.8 mPa·s
323.94 K, Cone and plate viscometry	151.1 mPa·s
324.68 K, Cone and plate viscometry	144.3 mPa·s
324.69 K, Cone and plate viscometry	145.6 mPa·s
325.43 K, Cone and plate viscometry	139.3 mPa·s
325.44 K, Cone and plate viscometry	140.5 mPa·s
326.17 K, Cone and plate viscometry	135.3 mPa·s
326.18 K, Cone and plate viscometry	135.7 mPa·s
326.91 K, Cone and plate viscometry	129.5 mPa·s
326.92 K, Cone and plate viscometry	130.8 mPa·s
327.65 K, Cone and plate viscometry	124.9 mPa·s
327.67 K, Cone and plate viscometry	126 mPa·s
328.39 K, Cone and plate viscometry	120.8 mPa·s
328.46 K, Cone and plate viscometry	121.6 mPa·s
329.14 K, Cone and plate viscometry	116.8 mPa·s and 117.6 mPa·s
329.88 K, Cone and plate viscometry	112.8 mPa·s and 113.7 mPa·s
330.62 K, Cone and plate viscometry	108.9 mPa·s
330.63 K, Cone and plate viscometry	109.9 mPa·s
331.36 K, Cone and plate viscometry	105.1 mPa·s
331.37 K, Cone and plate viscometry	106 mPa·s
332.1 K, Cone and plate viscometry	102.6 mPa·s

Conditions	mass density	speed of sound [m/s]
278.15 K	1252.41 kg/m3 and 1252.42 kg/m3	–
278.16 K	1252.41 kg/m3	–
283.15 K	1248.4 kg/m3 [middle of 4 runs]	1460.8
288.15 K	1244.12 kg/m3	–
293.15 K	1240.16 kg/m3 and 1240.34 kg/m3 and 1240.35 kg/m3	1425.5
293.17 K	1240.24 kg/m3	–
298.15 K	1236.18 kg/m3	–
303.15 K	1232.68 kg/m3 and 1232.44 kg/m3 and 1232.4 kg/m3	1394.9
303.16 K	1232.32 kg/m3	–
313.15 K	1224.86 kg/m3 and 1224.73 kg/m3 and 1224.76 kg/m3	–
313.16 K	1224.63 kg/m3	1367
323.15 K	1217.09 kg/m3 and 1217.15 kg/m3	1342
323.16 K	1217.34 kg/m3	–
